# Active and inactive are the calls of the source. No cut-off for these calls is given here.
# What was measured:
# [1] = Antiproliferative activity against J774.2 cells assessed as inhibition of cell proliferation measured after 72 hrs by MTT assay; type: toxicity, cell-based; conditions: mouse
# [2] = Antiproliferative activity against human HaCaT cells assessed as inhibition of cell proliferation measured after 72 hrs by MTT assay; type: toxicity, cell-based
# [3] = Antiproliferative activity against NIH3T3 cells assessed as inhibition of cell proliferation measured after 72 hrs by MTT assay; type: toxicity, cell-based; conditions: mouse
# K562 [4] = assay: Antiproliferative activity against human K562 cells assessed as inhibition of cell proliferation measured after 72 hrs by MTT assay; type: functional, cell-based; conditions: K562, 72 h
# K562 [5] = assay: Induction of pro-apoptotic morphological changes in human K562 cells at 70 to 700 nM incubated for 24 hrs by Hoescht-33342 staining based analysis; type: functional, cell-based; conditions: dose 70-700 nM
# K562 [6] = assay: Induction of DNA damage in human K562 cells assessed as tail DNA level at 700 nM incubated for 24 hrs by comet assay (reference value: 0.5 to 0.6 %); type: functional
# K562 [7] = assay: Induction of DNA damage in human K562 cells assessed as tail DNA level at 70 nM incubated for 24 hrs by comet assay (reference value: 0.5 to 0.6 %); type: functional
# K562 [8] = assay: Induction of DNA damage in human K562 cells assessed as olive tail moment level at 70 nM incubated for 24 hrs by comet assay (reference value: 0.2); type: functional
# K562 [9] = assay: Induction of DNA damage in human K562 cells assessed as olive tail moment level at 700 nM incubated for 24 hrs by comet assay (reference value: 0.2); type: functional
# HeLa = assay: Antiproliferative activity against human HeLa cells assessed as inhibition of cell proliferation measured after 48 hrs by MTT assay; type: functional, cell-based
# T47D = assay: Antiproliferative activity against human T47D cells assessed as inhibition of cell proliferation measured after 48 hrs by SRB assay; type: functional, cell-based
# Hep 3B2 = assay: Antiproliferative activity against human Hep3B cells assessed as inhibition of cell proliferation; type: functional, cell-based
# OVCAR-4 [10] = assay: Anticancer activity against human OVCAR-4 cells assessed as cell growth at 10^-5 M incubated for 48 hrs by SRB assay relative to control; type: functional; conditions: OVCAR-4, 48 h, dose 1 10^-5M, read-out: Activity
# K562 [11] = assay: Anticancer activity against human K562 cells assessed as cell growth at 10^-5 M incubated for 48 hrs by SRB assay relative to control; type: functional; conditions: K562, 48 h, dose 1 10^-5M, read-out: Activity
# UACC-62 [12] = assay: Anticancer activity against human UACC-62 cells assessed as cell growth at 10^-5 M incubated for 48 hrs by SRB assay relative to control; type: functional; conditions: UACC-62, 48 h, dose 1 10^-5M, read-out: Activity
# SK-MEL-5 [13] = assay: Anticancer activity against human SK-MEL-5 cells assessed as cell growth at 10^-5 M incubated for 48 hrs by SRB assay relative to control; type: functional; conditions: SK-MEL-5, 48 h, dose 1 10^-5M, read-out: Activity
# SF-295 = assay: Anticancer activity against human SF-295 cells assessed as cell growth at 10^-5 M incubated for 48 hrs by SRB assay relative to control; type: functional; conditions: SF-295, 48 h, dose 1 10^-5M, read-out: Activity
# NCI/ADR-RES [14] = assay: Anticancer activity against human NCI/ADR-RES cells assessed as cell growth at 10^-5 M incubated for 48 hrs by SRB assay relative to control; type: functional; conditions: dose 1 10^-5M, read-out: Activity
# A549 = assay: Anticancer activity against human A549 cells assessed as cell growth at 10^-5 M incubated for 48 hrs by SRB assay relative to control; type: functional; conditions: A549, 48 h, dose 1 10^-5M, read-out: Activity
# KM12 [15] = assay: Anticancer activity against human KM12 cells assessed as cell growth at 10^-5 M incubated for 48 hrs by SRB assay relative to control; type: functional; conditions: KM12, 48 h, dose 1 10^-5M, read-out: Activity
# [16] = Selectivity index, ratio of IC50 for […] to IC50 for human K562 cells; type: functional
# MDA-MB-435 = assay: Anticancer activity against human MDA-MB-435 cells assessed as cell growth at 10^-5 M incubated for 48 hrs by SRB assay relative to control; type: functional; conditions: MDA-MB-435, 48 h, dose 1 10^-5M, read-out: Activity
# ACHN = assay: Anticancer activity against human ACHN cells assessed as cell growth at 10^-5 M incubated for 48 hrs by SRB assay relative to control; type: functional; conditions: dose 1 10^-5M, read-out: Activity
# CAKI-1 [17] = assay: Anticancer activity against human CAKI-1 cells assessed as cell growth at 10^-5 M incubated for 48 hrs by SRB assay relative to control; type: functional; conditions: CAKI-1, 48 h, dose 1 10^-5M, read-out: Activity
# MDA-MB-468 [18] = assay: Anticancer activity against human MDA-MB-468 cells assessed as cell growth at 10^-5 M incubated for 48 hrs by SRB assay relative to control; type: functional; conditions: MDA-MB-468, 48 h, dose 1 10^-5M, read-out: Activity
# MOLT-4 = assay: Anticancer activity against human MOLT-4 cells assessed as cell growth at 10^-5 M incubated for 48 hrs by SRB assay relative to control; type: functional; conditions: MOLT-4, 48 h, dose 1 10^-5M, read-out: Activity
# HCT-15 = assay: Anticancer activity against human HCT-15 cells assessed as cell growth at 10^-5 M incubated for 48 hrs by SRB assay relative to control; type: functional; conditions: HCT-15, 48 h, dose 1 10^-5M, read-out: Activity
# NCI-H460 = assay: Anticancer activity against human NCI-H460 cells assessed as cell growth at 10^-5 M incubated for 48 hrs by SRB assay relative to control; type: functional; conditions: NCI-H460, 48 h, dose 1 10^-5M, read-out: Activity
# MCF7 = assay: Anticancer activity against human MCF7 cells assessed as cell growth at 10^-5 M incubated for 48 hrs by SRB assay relative to control; type: functional; conditions: MCF7, 48 h, dose 1 10^-5M, read-out: Activity
# CAKI-1 [19] = assay: Antiproliferative activity against human CAKI-1 cells assessed as inhibition of cell proliferation measured after 48 hrs by SRB assay; type: functional, cell-based; conditions: CAKI-1, 48 h
# BT-549 = assay: Antiproliferative activity against human BT-549 cells assessed as inhibition of cell proliferation measured after 48 hrs by SRB assay; type: functional, cell-based; conditions: BT-549, 48 h
# SK-MEL-5 [20] = assay: Antiproliferative activity against human SK-MEL-5 cells assessed as inhibition of cell proliferation measured after 48 hrs by SRB assay; type: functional, cell-based; conditions: SK-MEL-5, 48 h
# PC-3 = assay: Antiproliferative activity against human PC-3 cells assessed as inhibition of cell proliferation measured after 48 hrs by SRB assay; type: functional, cell-based; conditions: PC-3, 48 h
# UACC-62 [21] = assay: Antiproliferative activity against human UACC-62 cells assessed as inhibition of cell proliferation measured after 48 hrs by SRB assay; type: functional, cell-based; conditions: UACC-62, 48 h
# KM12 [22] = assay: Antiproliferative activity against human KM12 cells assessed as inhibition of cell proliferation measured after 48 hrs by SRB assay; type: functional, cell-based; conditions: KM12, 48 h
# MDA-MB-468 [23] = assay: Antiproliferative activity against human MDA-MB-468 cells assessed as inhibition of cell proliferation measured after 48 hrs by SRB assay; type: functional, cell-based; conditions: MDA-MB-468, 48 h
# NCI/ADR-RES [24] = assay: Antiproliferative activity against human NCI-ADR-RES cells assessed as inhibition of cell proliferation measured after 48 hrs by SRB assay; type: functional, cell-based
# OVCAR-4 [25] = assay: Antiproliferative activity against human OVCAR-4 cells assessed as inhibition of cell proliferation measured after 48 hrs by SRB assay; type: functional, cell-based; conditions: OVCAR-4, 48 h
# [26] = Selectivity index, ratio of IC50 for human HaCaT cells to IC50 for human K562 cells; type: toxicity; conditions: HaCaT cells and K562 cells, read-out: Ratio IC50
# LOX IMVI = assay: Anticancer activity against human LOX IMVI cells assessed as cell growth at 10^-5 M incubated for 48 hrs by SRB assay relative to control; type: functional; conditions: dose 1 10^-5M, read-out: Activity
compound,measurement,setting,value
Cc1cccc(Cc2cnc(NC(=O)c3cccc(-n4cnnn4)c3)s2)c1,IC50 at 72 h,[1],52.8 µM
same,IC50 at 72 h,[2],> 100 µM
same,IC50 at 72 h,[3],> 100 µM
same,IC50,K562 [4],> 100 µM
COc1cccc2c1C(=O)c1c(O)c3c(c(O)c1C2=O)C[C@@](O)(C(=O)CO)C[C@@H]3O[C@H]1C[C@H](N)[C@H](O)[C@H](C)O1 [DOXORUBICIN],IC50 at 72 h,[1],0.64 µM
same,IC50 at 72 h,[2],0.86 µM
same,Activity,K562 [5],inactive
same,Activity,K562 [6],3.5%
same,Activity,K562 [7],0.7%
same,IC50 at 72 h,[3],0.79 µM
same,Activity,K562 [8],0.4
same,Activity,K562 [9],1
CC(C)(C)c1nc(NC(=O)CN2CCN(c3ccc(O)cc3)CC2)sc1Cc1ccc(Cl)cc1,IC50,HeLa,1.6 µM
O=C(Nc1ncc(Cc2cccc(Cl)c2Cl)s1)c1cc2ccccc2o1,IC50,T47D,0.0255 µM
O=C(CCc1ccco1)Nc1ncc(Cc2ccccc2)s1,IC50,Hep 3B2,0.089 µM
O=C(Nc1ncc(Cc2cccc(C(F)(F)F)c2)s1)c1ccc(-n2cnnn2)cc1,growth at 10 µM,OVCAR-4 [10],33.6%
same,IC50 at 72 h,[1],43.2 µM
same,growth at 10 µM,K562 [11],21%
same,growth at 10 µM,UACC-62 [12],19.8%
same,growth at 10 µM,SK-MEL-5 [13],37.8%
same,growth at 10 µM,SF-295,32.2%
same,growth at 10 µM,NCI/ADR-RES [14],35.9%
same,growth at 10 µM,A549,34.4%
same,growth at 10 µM,KM12 [15],28.8%
same,Ratio IC50,[16],1.8
same,growth at 10 µM,MDA-MB-435,24%
same,growth at 10 µM,ACHN,32%
same,IC50 at 72 h,[2],> 100 µM
same,growth at 10 µM,CAKI-1 [17],30.1%
same,growth at 10 µM,MDA-MB-468 [18],16.7%
same,IC50 at 72 h,[3],> 100 µM
same,growth at 10 µM,MOLT-4,39.4%
same,growth at 10 µM,HCT-15,38.7%
same,growth at 10 µM,NCI-H460,30.5%
same,IC50,K562 [4],23.7 µM
same,growth at 10 µM,MCF7,28.7%
Cc1cnnn1-c1ccc(C(=O)Nc2ncc(Cc3ccccc3)s2)cc1,IC50,CAKI-1 [19],4.7 µM
same,IC50,BT-549,3.99 µM
same,IC50,SK-MEL-5 [20],2.8 µM
same,IC50,PC-3,4.26 µM
same,IC50,UACC-62 [21],3.28 µM
same,IC50,KM12 [22],3.68 µM
same,IC50,MDA-MB-468 [23],2.02 µM
same,IC50,NCI/ADR-RES [24],4.06 µM
same,IC50,OVCAR-4 [25],3.02 µM
Cc1ccc(Cc2cnc(NC(=O)c3ccc(-n4cnnn4)cc3)s2)cc1,IC50 at 72 h,[1],59.8 µM
same,growth at 10 µM,K562 [11],22.9%
same,growth at 10 µM,UACC-62 [12],20.3%
same,selectivity ratio,[26],6.6
same,growth at 10 µM,ACHN,39.5%
same,IC50 at 72 h,[2],52.6 µM
same,growth at 10 µM,LOX IMVI,39.4%
same,growth at 10 µM,CAKI-1 [17],39.1%
same,IC50 at 72 h,[3],> 100 µM
same,IC50,K562 [4],8 µM
O=C(Nc1ncc(Cc2ccccc2)s1)c1ccc(-n2cnnn2)cc1O,IC50 at 72 h,[1],22.2 µM
same,IC50 at 72 h,[2],> 100 µM
same,IC50 at 72 h,[3],> 100 µM
same,IC50,K562 [4],> 100 µM

# Source: ChEMBL document CHEMBL5335775, “Bioisosteric replacement of 1H-1,2,3-triazole with 1H-tetrazole ring enhances anti-leukemic activity of (5-benzylthiazol-2-yl)benzamides” (Eur J Med Chem, 2023)
